The values that follow come from patent publication US20250114345A1, “COMPOUNDS AND COMPOSITIONS AS CBP/P300 DEGRADERS AND USES THEREOF” (Oncopia Therapeutics, Inc. d/b/a/ SK Life Science Labs, priority 2023, published 2025).

In one experiment the target is T1, CBP (Homo sapiens, UniProt Q92793).
T1 construct: host or cells: A549 CBP HiBit cells
The experiment can be described thus: CBP degradation, HiBit technology in A549 CBP HiBit cells (24 h). In kind it is cell-based. The note with it: 24 hrs post treatment. As to the method:
p300 and CBP degradation potency and Dmax were determined using in cell western (ICW) assay technology in H1299 cells or HiBit technology in A549 HiBit cells.
A549 P300 HiBit and A549 CBP HiBit cells were plated in separate 384-well, TC treated, white-opaque, flat-bottomed microplate. Cells were plated at a cell density of 0.2×10^4 cells per well in assay media comprised of F-12K, 10% heat inactivated FBS, and 1% penicillin/streptomycin. Assay microplates containing HiBit cells were placed in a 37° C., 5% CO2, tissue culture incubator and left to equilibrate overnight. The next day cells were treated with serial dilutions of test compound made up of 10 mM stock solutions in DMSO. 384-Well plates containing treated cells were then placed back into a 37° C., 5% CO2, tissue culture incubator. Assay microplates containing A549 P300 HiBit cells were incubated for 2 hrs post treatment before P300 destruction was assessed, while microplates containing A549 CBP HiBit cells were incubated for 24 hrs post treatment before CBP destruction was determined. On the day of each assay time point, microplates were removed from the tissue culture incubator and prepared HiBit Lytic detection buffer (Promega, cat #N3O40) was added to each plate. Plates were covered with aluminum foil and incubated for ten minutes at room temperature on an orbital shaker. After incubation, luminescent signal of each plate was measured using the Envision instrument (Perkin Elmer).
On the technique in general: HiBiT is a short tag that completes a luciferase, so light tracks the accessible tagged protein.

For a further experiment, the target named is T2, p300 (Homo sapiens, UniProt Q09472).
T2 construct: host or cells: A549 P300 HiBit cells
The experiment can be described thus: P300 degradation, HiBit technology in A549 P300 HiBit cells (2 h). It counts as cell-based. The settings on record: 2 hrs post treatment; for Dmax: A549, A549 P300 HiBit cells; for DC50: A549 P300 HiBit cells. In a few lines:
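A549 HiBiT knock-in cells seeded overnight at 37 °C, 5% CO2 in F-12K with 10% heat-inactivated FBS, then given serial dilutions of compound from 10 mM DMSO stocks. Lytic HiBiT detection reagent added for 10 min at room temperature; luminescence read. Potency and Dmax reported.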

Some results are limits rather than exact numbers.

T1 sequence (Q92793 whole entry): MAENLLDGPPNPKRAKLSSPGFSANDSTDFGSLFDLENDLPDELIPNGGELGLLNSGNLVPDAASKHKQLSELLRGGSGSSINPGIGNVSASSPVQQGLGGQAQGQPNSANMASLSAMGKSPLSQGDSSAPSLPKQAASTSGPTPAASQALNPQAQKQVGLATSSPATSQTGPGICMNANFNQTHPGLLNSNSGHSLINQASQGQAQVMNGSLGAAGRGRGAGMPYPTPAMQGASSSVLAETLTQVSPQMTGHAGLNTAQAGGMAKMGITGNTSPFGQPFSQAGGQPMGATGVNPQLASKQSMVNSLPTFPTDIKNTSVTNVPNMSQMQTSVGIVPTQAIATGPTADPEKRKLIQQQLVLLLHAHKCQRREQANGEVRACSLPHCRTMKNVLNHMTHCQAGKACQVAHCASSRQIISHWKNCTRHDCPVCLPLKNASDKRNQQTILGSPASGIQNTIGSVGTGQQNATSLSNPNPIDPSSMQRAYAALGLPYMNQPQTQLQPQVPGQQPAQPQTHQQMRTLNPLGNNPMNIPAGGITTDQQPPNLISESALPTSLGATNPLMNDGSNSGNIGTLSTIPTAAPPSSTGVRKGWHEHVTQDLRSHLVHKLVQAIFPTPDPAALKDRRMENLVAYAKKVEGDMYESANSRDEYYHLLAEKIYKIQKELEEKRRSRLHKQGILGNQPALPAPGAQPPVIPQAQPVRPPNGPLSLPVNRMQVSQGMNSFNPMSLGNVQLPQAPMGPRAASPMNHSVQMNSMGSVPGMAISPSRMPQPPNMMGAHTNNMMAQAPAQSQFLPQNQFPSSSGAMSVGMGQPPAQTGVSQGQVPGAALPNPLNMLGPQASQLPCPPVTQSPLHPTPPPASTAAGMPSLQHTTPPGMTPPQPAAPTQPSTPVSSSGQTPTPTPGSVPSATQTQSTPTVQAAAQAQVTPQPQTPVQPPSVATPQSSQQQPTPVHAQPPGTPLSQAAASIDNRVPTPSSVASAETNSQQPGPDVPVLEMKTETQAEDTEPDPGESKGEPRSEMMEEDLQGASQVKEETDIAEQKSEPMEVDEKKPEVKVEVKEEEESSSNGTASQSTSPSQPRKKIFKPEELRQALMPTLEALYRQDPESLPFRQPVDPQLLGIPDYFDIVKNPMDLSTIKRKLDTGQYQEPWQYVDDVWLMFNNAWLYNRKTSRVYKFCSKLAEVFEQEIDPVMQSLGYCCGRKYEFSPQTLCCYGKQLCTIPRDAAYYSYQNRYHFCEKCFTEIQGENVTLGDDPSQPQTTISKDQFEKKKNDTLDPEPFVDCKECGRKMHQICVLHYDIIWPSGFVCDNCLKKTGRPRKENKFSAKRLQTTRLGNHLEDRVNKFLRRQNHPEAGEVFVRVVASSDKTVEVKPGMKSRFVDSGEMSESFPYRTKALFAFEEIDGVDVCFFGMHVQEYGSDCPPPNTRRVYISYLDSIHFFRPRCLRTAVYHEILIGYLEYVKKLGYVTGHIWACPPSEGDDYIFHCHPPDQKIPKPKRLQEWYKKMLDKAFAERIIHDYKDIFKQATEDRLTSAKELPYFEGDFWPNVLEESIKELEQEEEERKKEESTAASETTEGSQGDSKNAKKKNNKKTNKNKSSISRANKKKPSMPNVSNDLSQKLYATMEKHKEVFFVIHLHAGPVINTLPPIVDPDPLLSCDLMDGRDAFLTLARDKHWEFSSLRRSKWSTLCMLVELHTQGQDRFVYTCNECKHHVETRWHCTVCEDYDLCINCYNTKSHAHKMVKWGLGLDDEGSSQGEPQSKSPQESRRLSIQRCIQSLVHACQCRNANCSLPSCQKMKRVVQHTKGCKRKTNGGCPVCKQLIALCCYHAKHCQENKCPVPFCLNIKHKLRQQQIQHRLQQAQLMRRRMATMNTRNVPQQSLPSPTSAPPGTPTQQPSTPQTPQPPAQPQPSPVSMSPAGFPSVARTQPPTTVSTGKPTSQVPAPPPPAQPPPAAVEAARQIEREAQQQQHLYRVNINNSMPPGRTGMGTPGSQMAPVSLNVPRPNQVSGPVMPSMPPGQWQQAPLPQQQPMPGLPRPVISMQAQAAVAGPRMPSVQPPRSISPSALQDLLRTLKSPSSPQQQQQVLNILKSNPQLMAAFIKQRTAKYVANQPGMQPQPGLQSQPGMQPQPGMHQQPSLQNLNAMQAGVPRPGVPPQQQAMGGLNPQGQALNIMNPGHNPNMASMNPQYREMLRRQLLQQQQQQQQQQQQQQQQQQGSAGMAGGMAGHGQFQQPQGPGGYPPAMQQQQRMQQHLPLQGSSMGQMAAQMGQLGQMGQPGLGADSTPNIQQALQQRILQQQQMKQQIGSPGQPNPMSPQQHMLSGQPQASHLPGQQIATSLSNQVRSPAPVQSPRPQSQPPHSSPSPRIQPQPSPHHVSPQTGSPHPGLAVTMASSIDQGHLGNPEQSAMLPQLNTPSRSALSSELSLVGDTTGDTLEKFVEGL
T2 sequence (Q09472 whole entry): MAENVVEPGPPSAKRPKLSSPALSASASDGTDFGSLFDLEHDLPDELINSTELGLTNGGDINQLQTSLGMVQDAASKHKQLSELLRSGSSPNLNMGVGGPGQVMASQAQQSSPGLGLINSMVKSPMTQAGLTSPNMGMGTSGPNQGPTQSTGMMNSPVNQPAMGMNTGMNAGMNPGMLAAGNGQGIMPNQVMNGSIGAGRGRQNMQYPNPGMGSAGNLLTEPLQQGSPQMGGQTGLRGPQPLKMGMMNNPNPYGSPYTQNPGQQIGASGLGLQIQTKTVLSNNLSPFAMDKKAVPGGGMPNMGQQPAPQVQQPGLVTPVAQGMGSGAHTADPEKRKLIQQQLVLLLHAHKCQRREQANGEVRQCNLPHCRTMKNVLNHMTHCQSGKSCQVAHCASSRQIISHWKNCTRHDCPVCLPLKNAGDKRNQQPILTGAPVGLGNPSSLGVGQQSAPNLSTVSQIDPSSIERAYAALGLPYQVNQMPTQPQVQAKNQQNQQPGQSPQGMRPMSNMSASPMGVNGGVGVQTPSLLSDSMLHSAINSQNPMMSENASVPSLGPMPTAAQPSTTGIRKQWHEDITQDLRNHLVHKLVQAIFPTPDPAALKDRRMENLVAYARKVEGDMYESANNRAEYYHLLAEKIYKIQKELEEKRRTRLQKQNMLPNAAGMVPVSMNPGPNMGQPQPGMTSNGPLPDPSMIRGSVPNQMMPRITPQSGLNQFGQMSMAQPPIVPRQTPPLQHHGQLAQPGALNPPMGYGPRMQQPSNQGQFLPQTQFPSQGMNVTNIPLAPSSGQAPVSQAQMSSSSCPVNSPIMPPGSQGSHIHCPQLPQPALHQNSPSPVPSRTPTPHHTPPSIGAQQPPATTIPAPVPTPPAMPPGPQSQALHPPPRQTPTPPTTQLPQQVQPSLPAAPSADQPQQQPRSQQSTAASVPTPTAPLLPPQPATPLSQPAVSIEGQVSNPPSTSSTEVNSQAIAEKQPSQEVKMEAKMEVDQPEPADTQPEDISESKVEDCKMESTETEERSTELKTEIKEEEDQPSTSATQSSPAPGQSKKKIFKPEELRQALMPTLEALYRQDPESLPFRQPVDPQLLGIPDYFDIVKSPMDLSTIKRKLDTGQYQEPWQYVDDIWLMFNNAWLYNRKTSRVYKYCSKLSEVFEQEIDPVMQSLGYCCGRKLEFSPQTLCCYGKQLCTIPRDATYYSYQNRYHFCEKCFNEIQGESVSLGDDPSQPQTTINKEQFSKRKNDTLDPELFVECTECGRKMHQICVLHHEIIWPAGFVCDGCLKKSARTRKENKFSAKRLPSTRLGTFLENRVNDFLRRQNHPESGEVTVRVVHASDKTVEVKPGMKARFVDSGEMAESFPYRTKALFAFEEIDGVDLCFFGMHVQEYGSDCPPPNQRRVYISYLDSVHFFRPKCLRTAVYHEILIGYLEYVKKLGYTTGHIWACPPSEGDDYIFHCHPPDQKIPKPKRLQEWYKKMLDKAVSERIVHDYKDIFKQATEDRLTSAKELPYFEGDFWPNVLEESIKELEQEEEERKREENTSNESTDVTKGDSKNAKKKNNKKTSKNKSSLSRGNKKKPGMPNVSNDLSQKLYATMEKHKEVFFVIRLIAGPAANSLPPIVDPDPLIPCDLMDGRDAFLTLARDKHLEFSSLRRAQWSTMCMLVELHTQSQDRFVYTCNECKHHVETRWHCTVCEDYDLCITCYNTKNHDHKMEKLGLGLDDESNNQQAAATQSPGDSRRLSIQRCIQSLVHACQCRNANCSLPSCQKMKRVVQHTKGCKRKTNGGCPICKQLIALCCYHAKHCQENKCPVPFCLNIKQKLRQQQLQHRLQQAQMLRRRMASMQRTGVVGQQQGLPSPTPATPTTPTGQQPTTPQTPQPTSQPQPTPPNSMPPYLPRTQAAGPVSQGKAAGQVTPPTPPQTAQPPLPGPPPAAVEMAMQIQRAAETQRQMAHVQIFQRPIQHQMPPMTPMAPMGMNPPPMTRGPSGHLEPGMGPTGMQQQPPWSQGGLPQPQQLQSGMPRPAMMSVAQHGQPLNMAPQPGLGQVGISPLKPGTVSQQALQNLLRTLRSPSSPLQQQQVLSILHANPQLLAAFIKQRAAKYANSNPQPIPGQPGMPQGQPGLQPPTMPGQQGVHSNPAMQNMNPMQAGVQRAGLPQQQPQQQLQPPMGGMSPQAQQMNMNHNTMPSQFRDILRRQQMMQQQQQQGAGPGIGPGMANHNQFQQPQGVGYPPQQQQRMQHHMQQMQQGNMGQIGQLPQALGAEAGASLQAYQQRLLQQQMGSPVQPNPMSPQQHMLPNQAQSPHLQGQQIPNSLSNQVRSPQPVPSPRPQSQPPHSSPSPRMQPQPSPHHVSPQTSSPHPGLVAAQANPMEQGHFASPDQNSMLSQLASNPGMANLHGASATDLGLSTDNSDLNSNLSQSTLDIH

In general, DC50 refers to the concentration giving 50% degradation. A high value points to a less potent degrader. The Dmax is the largest share of the target that was removed. A low value points to shallow degradation. At CBP, `CC(C)c1cc(-c2cccc3cc(-c4ccc(C(=O)NCC#Cc5ccc6cnn(C7CCC(=O)NC7=O)c6c5F)nc4)ncc23)cc2c1n(C)c(=O)n2C` (stereo not drawn) [Example A1, N-(3-(1-(2,6-Dioxopiperidin-3-yl)-7-fluoro-1H-indazol-6-yl)prop-2-yn-1-yl)-5-(8-(7-isopropyl-1,3-dimethyl-2-oxo-2,3-dihydro-1H-benzo[d]imidazol-5-yl)isoquinolin-3-yl)picolinamide] came in with a DC50 of 10 to 99 nM and a Dmax of 40 to 59%. Moreover, at p300, the Dmax is more than 80% and the DC50 is 1 to 9.9 nM.

For `CC(C)c1cc(-c2cccc3cc(-c4ccc(C(=O)NCC#Cc5cccc(NC67CC(C6)C(=O)NC7=O)c5)nc4)ncc23)cc2c1n(C)c(=O)n2C` [Example A2, N-(3-(3-((2,4-Dioxo-3-azabicyclo[3.1.1]heptan-1-yl)amino)phenyl)prop-2-yn-1-yl)-5-(8-(7-isopropyl-1,3-dimethyl-2-oxo-2,3-dihydro-1H-benzo[d]imidazol-5-yl)isoquinolin-3-yl)picolinamide], on CBP, the DC50 is more than 1000 nM and the Dmax was less than 20%. On p300, this molecule had a Dmax of more than 80% and a DC50 of 10 to 99 nM.

At CBP, `CC(C)c1cc(-c2cccc3cc(-c4ccc(C(=O)NCC#Cc5ccc6nnn(C7CCC(=O)NC7=O)c6c5)nc4)ncc23)cc2c1n(C)c(=O)n2C` (stereo not drawn) [Example A3, N-(3-(1-(2,6-Dioxopiperidin-3-yl)-1H-benzo[d][1,2,3]triazol-6-yl)prop-2-yn-1-yl)-5-(8-(7-isopropyl-1,3-dimethyl-2-oxo-2,3-dihydro-1H-benzo[d]imidazol-5-yl)isoquinolin-3-yl)picolinamide] had a DC50 of more than 1000 nM and a Dmax of less than 20%. In addition, on p300, the Dmax was more than 80% and the DC50 was less than 1 nM.

On CBP, `CC(C)c1cc(-c2cccc3cc(-c4ccc(C(=O)NCC#Cc5ccc6c(c5)c(C5CCC(=O)NC5=O)nn6C)nc4)ncc23)cc2c1n(C)c(=O)n2C` (stereo not drawn) [Example A5, N-(3-(3-(2,6-Dioxopiperidin-3-yl)-1-methyl-1H-indazol-5-yl)prop-2-yn-1-yl)-5-(8-(7-isopropyl-1,3-dimethyl-2-oxo-2,3-dihydro-1H-benzo[d]imidazol-5-yl)isoquinolin-3-yl)picolinamide] gave a DC50 of 10 to 99 nM and a Dmax of more than 80%. On p300, this molecule came in with a Dmax of more than 80% and a DC50 of 1 to 9.9 nM.

Consider `CC(C)c1cc(-c2cccc3cc(-c4ccc(C(=O)NCC#Cc5ccc6ccnc(C7CCC(=O)NC7=O)c6c5)nc4)ncc23)cc2c1n(C)c(=O)n2C` (stereo not drawn) [Example A10, N-(3-(1-(2,6-Dioxopiperidin-3-yl)isoquinolin-7-yl)prop-2-yn-1-yl)-5-(8-(7-isopropyl-1,3-dimethyl-2-oxo-2,3-dihydro-1H-benzo[d]imidazol-5-yl)isoquinolin-3-yl)picolinamide], for which, on CBP, the DC50 is more than 1000 nM and the maximal degradation (Dmax) is less than 20%. Besides, at p300, the Dmax lay in the range of 60 to 79% and the DC50 lay in the range of 10 to 99 nM.

Consider `CC(C)c1cc(-c2cccc3cc(-c4ccc(C(=O)NCC#Cc5ccc6cnn(C7CCC(=O)NC7=O)c6c5)nc4)ncc23)cc2c1n(C)c(=O)n2C` (stereo not drawn) [Example A11, N-(3-(1-(2,6-Dioxopiperidin-3-yl)-1H-indazol-6-yl)prop-2-yn-1-yl)-5-(8-(7-isopropyl-1,3-dimethyl-2-oxo-2,3-dihydro-1H-benzo[d]imidazol-5-yl)isoquinolin-3-yl)picolinamide], for which the DC50 on CBP lay within 10 to 99 nM; on p300, 1 to 9.9 nM. In addition, the Dmax on CBP was 20 to 39%; on p300 it was more than 80%.

At CBP, `CC(C)c1cc(-c2cccc3cc(-c4ccc(C(=O)NCC#Cc5ccc6oc(=O)n(C7CCC(=O)NC7=O)c6c5)nc4)ncc23)cc2c1n(C)c(=O)n2C` (stereo not drawn) [Example A14, N-(3-(3-(2,6-Dioxopiperidin-3-yl)-2-oxo-2,3-dihydrobenzo[d]oxazol-5-yl)prop-2-yn-1-yl)-5-(8-(7-isopropyl-1,3-dimethyl-2-oxo-2,3-dihydro-1H-benzo[d]imidazol-5-yl)isoquinolin-3-yl)picolinamide] gave a DC50 of 10 to 99 nM and a Dmax of 60 to 79%. At p300, this molecule gave a Dmax of more than 80% and a DC50 of 1 to 9.9 nM.

Regarding `CC(C)c1cc(-c2cccc3cc(-c4ccc(C(=O)NCC#Cc5ccc6ncn(C7CCC(=O)NC7=O)c6c5)nc4)ncc23)cc2c1n(C)c(=O)n2C` (stereo not drawn) [Example A15, N-(3-(1-(2,6-Dioxopiperidin-3-yl)-1H-benzo[d]imidazol-6-yl)prop-2-yn-1-yl)-5-(8-(7-isopropyl-1,3-dimethyl-2-oxo-2,3-dihydro-1H-benzo[d]imidazol-5-yl)isoquinolin-3-yl)picolinamide], at CBP, the DC50 was more than 1000 nM and the Dmax was less than 20%. At p300, this molecule came in with a Dmax of more than 80% and a DC50 of less than 1 nM.

As to `CC(C)c1cc(-c2cccc3cc(-c4ccc(C(=O)NC/C=C/c5cc(NC6CCC(=O)NC6=O)nn5C)nc4)ncc23)cc2c1n(C)c(=O)n2C` (stereo not drawn) [Example A16, (E)-N-(3-(3-((2,6-Dioxopiperidin-3-yl)amino)-1-methyl-1H-pyrazol-5-yl)allyl)-5-(8-(7-isopropyl-1,3-dimethyl-2-oxo-2,3-dihydro-1H-benzo[d]imidazol-5-yl)isoquinolin-3-yl)picolinamide], on CBP, the DC50 was more than 1000 nM and the greatest degradation seen (Dmax) was less than 20%. Moreover, at p300, the Dmax lay in the range of 20 to 39% and the DC50 was in the range of 1 to 9.9 nM.

Regarding `CC(C)c1cc(-c2cccc3cc(-c4ccc(C(=O)NCC#Cc5ccc6c(c5)n(C5CCC(=O)NC5=O)c(=O)n6C)nc4)ncc23)cc2c1n(C)c(=O)n2C` (stereo not drawn) [Example A18, N-(3-(3-(2,6-Dioxopiperidin-3-yl)-1-methyl-2-oxo-2,3-dihydro-1H-benzo[d]imidazol-5-yl)prop-2-yn-1-yl)-5-(8-(7-isopropyl-1,3-dimethyl-2-oxo-2,3-dihydro-1H-benzo[d]imidazol-5-yl)isoquinolin-3-yl)picolinamide], at CBP, the DC50 fell in the range of 10 to 99 nM and the Dmax was in the range of 60 to 79%. On p300, this molecule displayed a Dmax of more than 80% and a DC50 of 1 to 9.9 nM.

At CBP, `CC(C)c1cc(-c2cccc3cc(-c4ccc(C(=O)NCC#Cc5ccc6occ(C7CCC(=O)NC7=O)c6c5)nc4)ncc23)cc2c1n(C)c(=O)n2C` (stereo not drawn) [Example A23, N-(3-(3-(2,6-Dioxopiperidin-3-yl)benzofuran-5-yl)prop-2-yn-1-yl)-5-(8-(7-isopropyl-1,3-dimethyl-2-oxo-2,3-dihydro-1H-benzo[d]imidazol-5-yl)isoquinolin-3-yl)picolinamide] showed a DC50 of more than 1000 nM and a Dmax of less than 20%. In addition, on p300, the Dmax was more than 80% and the DC50 fell in the range of 1 to 9.9 nM.

As to `CC(C)c1cc(-c2cccc3cc(-c4ccc(C(=O)NCC#Cc5cc(NC6CCC(=O)NC6=O)nn5C)nc4)ncc23)cc2c1n(C)c(=O)n2C` (stereo not drawn) [Example A24, N-(3-(3-((2,6-Dioxopiperidin-3-yl)amino)-1-methyl-1H-pyrazol-5-yl)prop-2-yn-1-yl)-5-(8-(7-isopropyl-1,3-dimethyl-2-oxo-2,3-dihydro-1H-benzo[d]imidazol-5-yl)isoquinolin-3-yl)picolinamide], at CBP, the DC50 is more than 1000 nM and the Dmax was less than 20%. Moreover, at p300, the Dmax was more than 80% and the DC50 was less than 1 nM.

At CBP, `CC(C)c1cc(-c2cccc3cc(-c4ccc(C(=O)NCC#Cc5ccc6ncc(C7CCC(=O)NC7=O)n6c5)nc4)ncc23)cc2c1n(C)c(=O)n2C` (stereo not drawn) [Example A25, N-(3-(3-(2,6-Dioxopiperidin-3-yl)imidazo[1,2-a]pyridin-6-yl)prop-2-yn-1-yl)-5-(8-(7-isopropyl-1,3-dimethyl-2-oxo-2,3-dihydro-1H-benzo[d]imidazol-5-yl)isoquinolin-3-yl)picolinamide] showed a DC50 of 100 to 999 nM and a Dmax of less than 20%. Besides, at p300, the Dmax was more than 80% and the DC50 is less than 1 nM.

For `CC(C)c1cc(-c2cccc3cc(-c4ccc(C(=O)NCC#Cc5cc(OC6CCC(=O)NC6=O)nn5C)nc4)ncc23)cc2c1n(C)c(=O)n2C` (stereo not drawn) [Example A29, N-(3-(3-((2,6-Dioxopiperidin-3-yl)oxy)-1-methyl-1H-pyrazol-5-yl)prop-2-yn-1-yl)-5-(8-(7-isopropyl-1,3-dimethyl-2-oxo-2,3-dihydro-1H-benzo[d]imidazol-5-yl)isoquinolin-3-yl)picolinamide], at CBP, the DC50 was more than 1000 nM and the Dmax was less than 20%. At p300, this molecule yielded a Dmax of more than 80% and a DC50 of 1 to 9.9 nM.

`Cc1cc(-c2ccc(N(C)c3cc(C(C)C)c4c(c3)n(C)c(=O)n4C)cn2)cnc1C(=O)NCC#Cc1cccc(NC2CCC(=O)NC2=O)c1` (stereo not drawn) [Example A34, N-(3-(3-((2,6-Dioxopiperidin-3-yl)amino)phenyl)prop-2-yn-1-yl)-5-((7-isopropyl-1,3-dimethyl-2-oxo-2,3-dihydro-1H-benzo[d]imidazol-5-yl)(methyl)amino)-5′-methyl-[2,3′-bipyridine]-6′-carboxamide]: on CBP, the DC50 is more than 1000 nM and the Dmax is less than 20%. Further, on p300, the Dmax was more than 80% and the DC50 lay in the range of 10 to 99 nM.
